Data reported in US20190054060A1 (priority 2016, published 2019).

Tests used:
[1] = system: NIRV mutants E119V, R292K and N294S; conditions: cited from earlier work
[2] = system: influenza A(H3N2) infection with pneumonia; conditions: human, in vivo

In the case of CCOC(=O)C1=C[C@@H](OC(CC)CC)[C@H](NC(C)=O)[C@@H](N)C1 [Oseltamivir, ethyl (3R,4R,5S)-5-amino-4-acetamido-3-(pentan-3-yloxy)-cyclohex-1-ene-1-carboxylate], the “increase of the 50% inhibitory concentration (IC50) by NIRV mutants” value [1] is listed as greater than 100 fold, the “Admission to ICU - (%)” value [2] is listed as “(2.7) %” and the “Admission to ICU - no.” value [2] is listed as 3 no. The “Complications: Nosocomial infection - (%)” value [2] was “(5.5) %”, the “Complications: Nosocomial infection - no.” value [2] was 6 no and the “Complications: Ventilator associated pneumonia - (%)” value [2] was “(0.9) %”. For the same molecule, the “Complications: Ventilator associated pneumonia - no.” value [2] was 1 no, the “Length of hospitalization (median; IQR)” value [2] was 3 and the “Mortality 90-day - (%)” value [2] was “(10) %”. For the same molecule, the “Mortality 90-day - no.” value [2] was 11 no, the “Readmission ≤30 days from discharge - (%)” value [2] was “(17.3) %” and the “Readmission ≤30 days from discharge - no.” value [2] was 19 no.
